# Literature values as cited in patent publication US20260125514A1, “CROSSLINKED POLYMERS AND THEIR USES” (UNIVERSITÉ CÔTE D'AZUR, priority 2022, published 2026).
# Conditions: free, non crosslinked caulerpenyne; Parent-Massin (1996)
smiles,measurement,value
"CC(=O)O/C=C(/C=C/OC(C)=O)[C@H](C/C=C(\C)C#CC=C(C)C)OC(C)=O [caulerpenyne, Caulerpenyne]",toxicity,toxicity
